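Growth conditions: 96-well plates. Treatment: test compound, 48 hours, 5 concentrations. Analysis: linear interpolation between bracketing concentrations; unreached endpoints set to highest concentration. GI50 = concentration required for 50% inhibition of growth. Definition used: TGI = concentration required for complete inhibition of growth.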
Columns and labels:
Assay in all cases: DTP human tumour cell line panel, 48 h
[1] = tested on: DU-145 prostate
[2] = tested on: ACHN renal
[3] = tested on: A549 NSCLC
[4] = tested on: SF-539 CNS
[5] = tested on: HS 578T breast
[6] = tested on: NCI-H23 lung
[7] = tested on: HCC-2998 colon
[8] = tested on: HOP-62 NSCLC
[9] = tested on: SK-OV-3 ovarian
[10] = tested on: HT29 colon
[11] = tested on: BT-549 breast
[12] = tested on: M14 melanoma
[13] = tested on: MDA-MB-435
[14] = tested on: SW-620 colon
[15] = tested on: CCRF-CEM leukemia
[16] = tested on: HOP-92 NSCLC
[17] = tested on: PC-3 prostate
[18] = tested on: IGROV1 ovarian
[19] = tested on: SNB-19 CNS
[20] = tested on: U251 CNS
[21] = tested on: RXF 393 renal
[22] = tested on: MDA-MB-231 breast
[23] = tested on: CAKI-1 renal
[24] = tested on: K-562 leukemia
[25] = tested on: MOLT-4 leukemia
[26] = tested on: SK-MEL-5 melanoma
[27] = tested on: LOX IMVI melanoma

O=C1CS/C(=N/S(=O)(=O)c2ccc(N3N=C4c5ccccc5CC4C3c3cccs3)cc2)N(c2ccccc2)C1 (stereo not drawn)
TGI [1]: > 100 µM | GI50 [2]: 22.1 µM | TGI [2]: 78.7 µM | GI50 [3]: 47.2 µM | TGI [3]: > 100 µM | GI50 [4]: 27.8 µM | TGI [4]: 99.2 µM | GI50 [5]: 20.5 µM | TGI [5]: 83.7 µM | GI50 [6]: 24.2 µM | TGI [6]: 63.5 µM | GI50 [7]: 20.5 µM | TGI [7]: 48.5 µM | GI50 [8]: 17.4 µM | TGI [8]: 49.2 µM | GI50 [9]: > 100 µM | TGI [9]: > 100 µM | GI50 [10]: 61 µM | TGI [10]: > 100 µM | GI50 [11]: 21.4 µM | TGI [11]: > 100 µM | GI50 [12]: 39.1 µM | TGI [12]: > 100 µM | GI50 [13]: 29.5 µM | TGI [13]: > 100 µM | GI50 [14]: 45.2 µM | TGI [14]: > 100 µM | GI50 [15]: 36.8 µM | TGI [15]: > 100 µM | GI50 [16]: 79.9 µM | TGI [16]: > 100 µM | GI50 [17]: 45 µM | TGI [17]: > 100 µM | GI50 [18]: 19.5 µM | TGI [18]: > 100 µM | GI50 [19]: 55.7 µM | TGI [19]: > 100 µM | GI50 [20]: 28 µM | TGI [20]: > 100 µM | GI50 [21]: 41 µM | TGI [21]: > 100 µM | GI50 [22]: 21.4 µM | TGI [22]: 84.8 µM | GI50 [23]: 74.5 µM | TGI [23]: > 100 µM | GI50 [24]: 10.3 µM | TGI [24]: 93.5 µM | GI50 [25]: 0.0146 µM | TGI [25]: 34.8 µM | GI50 [26]: 38.2 µM | TGI [26]: > 100 µM | GI50 [27]: 21.2 µM | TGI [27]: 51 µM

Reference: PubChem BioAssay (NCI)
